# Paper PMC11928584, “H105A peptide eye drops promote photoreceptor survival in murine and human models of retinal degeneration” (Communications Medicine, 2025)
# Several values for one entry are separate records, joined by “and”; a condition that tells them apart may be missing. Equal entries are not always repeated. Where a SMILES comes first, the peptide text is derived from it.
# Test system: human iPSC-derived retinal organoids exposed to CSE
# Assay: TUNEL staining of retinal organoid sections
# Format: cell-based
# Conditions: Figure 8f; CSE + peptide; individual values, n=5
# Experimental: Human iPSCs were differentiated into retinal organoids (ROs) following the protocol by Zhong et al.[41]. Briefly, on Day 0, hiPSC colonies were dissociated with dispase and grown in a suspension to form embryoid bodies, and slowly transitioned to neural induction media (DMEM/F12 (1:1), 1% N2 supplement (Invitrogen), 1 x minimum essential media-nonessential amino acids (NEAAs), 2 µg/ml heparin (Sigma)). On Day 7, EBs were seeded on Matrigel coated plates and maintained in neural induction media. On Day 16, the media was switched to the retinal differentiation medium (DMEM/F12 (3:1), 2% B27 (without vitamin A, Invitrogen), 1x NEAA and 1% antibiotic–antimycotic (Gibco)). Retinal domains were identified and lifted manually with tungsten needles between Day 21 and Day 26 under a phase contrast microscope. On day 30, the culture medium was transitioned to DMEM/F12 (3:1) with 2% B27, 1x NEAA, 1% antibiotic–antimycotic, 10% fetal bovine serum (FBS; Gibco), […] Taurine (Sigma), and 2 mM GlutaMAX (Invitrogen). Additionally, 1 µM retinoic acid supplement was introduced daily starting from day 63. On day 91, the medium was modified to DMEM/F12 (1:1) supplemented with 1% N2, 1 x NEAAs, 1% antibiotic–antimycotic, 10% FBS, […] Taurine and 2 mM GlutaMAX, and the concentration of retinoic acid supplementation was reduced to 0.5 µM for the remainder of the culture period. The use of hiPSCs in this study conforms to the University of Colorado Institutional Biosafety Committee standards. […]
# D180 ROs were treated with each of the 5 experimental conditions, as described above (n = 5 for each condition), washed with PBS three times, and fixed with 4% paraformaldehyde for 10 min at room temperature. […] Fluorescence images were acquired with a Nikon C2 Confocal Microscope A1 (Minato City, Tokyo, Japan) and stitched together using Nikon Elements Software. Images were analysed with Fiji. The relative area of positive immunostaining was calculated as a percentage of total retinal area. […]
compound,measurement,value
CC[C@H](C)[C@H](NC(=O)[C@H](CC(C)C)NC(=O)[C@H](CC(=O)O)NC(=O)[C@H](Cc1ccc(O)cc1)NC(=O)[C@H](Cc1ccc(O)cc1)NC(=O)[C@H](CC(C)C)NC(=O)[C@H](C)NC(=O)[C@H](CCCNC(=N)N)NC(=O)[C@H](Cc1c[nH]cn1)NC(=O)[C@@H](NC(=O)[C@@H](NC(=O)[C@H](CO)NC(=O)[C@H](CCC(=O)O)NC(=O)[C@@H](NC(=O)[C@H](C)NC(=O)[C@@H](N)CCC(N)=O)[C@@H](C)O)[C@@H](C)CC)[C@@H](C)CC)C(=O)N[C@@H](CO)C(=O)O [R99A] (H-QATESIIHRALYYDLIS-OH),Relative TUNEL(+) area,4.87 and 4.90 and 3.81 and 6.35 and 6.42
